The values below come from patent US11753418B2, “Compounds for the modulation of Myc activity” (Syros Pharmaceuticals, Inc., priority 2015, dated 2023).

In one experiment the target is T1, c-Myc/Max/Ebox DNA (Homo sapiens, UniProt P01106).
T1 construct: his6 (cleaved yes)
Put plainly: c-Myc/Max/Ebox DNA AlphaScreen Assay. The format is binding. Particulars: free c-Myc 20 nM, his6-Max 5 nM, biotinylated Ebox oligo 10 nM, 2 hour incubation. In outline:
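Tag-free c-Myc (20 nM final) and biotinylated Ebox DNA (10 nM final) met compound first, then his6-Max was added; 2 h incubation in pH 8.0 HEPES buffer (150 mM NaCl, BSA, Tween20, glycogen, DTT), DMSO ≤2%. Ternary complex read as AlphaScreen signal between Ni-chelate acceptor and streptavidin donor beads.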
In general terms: Alpha assays give light when donor and acceptor beads are brought close together.

Experiment [1] relates to human small lung cancer cell line H2171. Put plainly: Cell Viability Assay (ATPlite). The format is cell-based. Particulars: NCI-H2171, 72 h, H2171 cells, incubated for three days, ATPlite readout. As to the method: Compounds of the invention were assayed for cell viability using the human small lung cancer cell line H2171 as described in the following protocol. Cells were counted and adjusted to 20,000 cells/mL. Using a Biotek EL406, 50 μL of cells in media were distributed into 384 well white plates from Thermo. Immediately after plating, compound in DMSO was distributed to plates. Compounds were added to plates using a 50 nL 384 well pin transfer manifold on a Janus workstation. Stocks were arrayed in 10 point dose response in DMSO stock in 384 well Greiner compound plates. After the addition of compounds, plates were incubated for three days in a 37° C. incubator. Cell viability was read out using ATPlite from Perkin Elmer. Lyophilized powder was resuspended in lysis buffer and diluted 1:2 with deionized water. 25 μL of this solution was added to each well using the Biotek liquid handler. Plates were incubated for 15 minutes at room temperature before signal was read on an Envision Plate Reader. The data from this assay are summarized in Table 3 below (H2171 activity).

Counter-ions that a name gives are not always drawn.

T1 sequence (P01106 whole entry): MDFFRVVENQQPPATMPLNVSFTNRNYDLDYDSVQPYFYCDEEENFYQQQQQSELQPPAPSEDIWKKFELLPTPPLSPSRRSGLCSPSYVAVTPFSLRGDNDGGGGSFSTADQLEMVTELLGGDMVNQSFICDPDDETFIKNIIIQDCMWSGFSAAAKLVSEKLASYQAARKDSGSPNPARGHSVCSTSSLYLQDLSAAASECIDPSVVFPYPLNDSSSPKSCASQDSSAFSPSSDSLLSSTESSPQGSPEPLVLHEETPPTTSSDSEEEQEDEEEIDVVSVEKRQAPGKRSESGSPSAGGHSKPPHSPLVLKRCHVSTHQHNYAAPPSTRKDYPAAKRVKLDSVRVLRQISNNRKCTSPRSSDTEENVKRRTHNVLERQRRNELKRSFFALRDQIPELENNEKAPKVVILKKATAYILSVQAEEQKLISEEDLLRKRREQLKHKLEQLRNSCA

With `COCC(NCCC(=O)Nc1sc2c(c1-c1nc3cnccc3s1)CCNC2)C(C)C` (stereo not shown) [Compound 134], the IC50 – broadly, the concentration at which inhibition is half-maximal – was under 0.5 µM on c-Myc/Max/Ebox DNA and 0.5 to 5 µM in experiment [1].
For `O=C(CCN[C@@H]1C[C@H]2CNC[C@H]2C1)Nc1sc2c(c1-c1nc3cnccc3s1)CCNC2` [Compound 153], the IC50 (at c-Myc/Max/Ebox DNA; in experiment [1]) was under 0.5 µM each time.
`O=C(CCN1CC(C(=O)O)C1)Nc1sc2c(c1-c1nc3cnccc3s1)CCNC2` [Compound 172]: the IC50 (against c-Myc/Max/Ebox DNA; in experiment [1]) was under 0.5 µM each time.
Consider `O=C(CCN[C@H]1CC[C@H](O)C1)Nc1sc2c(c1-c1nc3cnccc3s1)CCNC2` [Compound 176], for which the IC50 (at c-Myc/Max/Ebox DNA; in experiment [1]) was under 0.5 µM in each case.
As for `O=C(CCN[C@H]1CC[C@]2(CCC(=O)N2)CC1)Nc1sc2c(c1-c1nc3cnccc3s1)CCNC2` [Compound 177], the IC50 (at c-Myc/Max/Ebox DNA; in experiment [1]) was under 0.5 µM each time.
As to `O=C(CCN1CCCCC12CNC2)Nc1sc2c(c1-c1nc3cnccc3s1)CCNC2` [Compound 183], the IC50 is 0.5 to 5 µM against c-Myc/Max/Ebox DNA and under 0.5 µM in experiment [1].
For the compound `CN(CCCn1ccnc1)CCC(=O)Nc1sc2c(c1-c1nc3cnccc3s1)CCNC2` [Compound 190], the IC50 (on c-Myc/Max/Ebox DNA; in experiment [1]) was under 0.5 µM throughout.
`Cn1cncc1CNCCC(=O)Nc1sc2c(c1-c1nc3cnccc3s1)CCNC2` [Compound 203]: the figures for the IC50 (against c-Myc/Max/Ebox DNA; in experiment [1]) were under 0.5 µM and 0.5 to 5 µM, respectively.
Turning to `O=C(CCN1CCCC12CNC2)Nc1sc2c(c1-c1nc3cnccc3s1)CCNC2` [Compound 206], the IC50 was under 0.5 µM against c-Myc/Max/Ebox DNA and 0.5 to 5 µM in experiment [1].
With `COCCNCCC(=O)Nc1sc2c(c1-c1nc3cnccc3s1)CCNC2` [Compound 216, 3-((2-methoxyethyl)amino)-N-(3-(thiazolo[4,5-c]pyridin-2-yl)-4,5,6,7-tetrahydrothieno[2,3-c]pyridin-2-yl)propanamide], the IC50 (against c-Myc/Max/Ebox DNA; in experiment [1]) was under 0.5 µM in each case.
Regarding `CC[C@@H](C)NCCC(=O)Nc1sc2c(c1-c1nc3cnccc3s1)CCNC2` [Compound 217, (R)-3-(sec-butylamino)-N-(3-(thiazolo[4,5-c]pyridin-2-yl)-4,5,6,7-tetrahydrothieno[2,3-c]pyridin-2-yl)propanamide], the IC50 (on c-Myc/Max/Ebox DNA; in experiment [1]) was under 0.5 µM each time.
On to `O=C(CCNCCc1cccnc1)Nc1sc2c(c1-c1nc3cnccc3s1)CCNC2` [Compound 218, 3-((2-(pyridin-3-yl)ethyl)amino)-N-(3-(thiazolo[4,5-c]pyridin-2-yl)-4,5,6,7-tetrahydrothieno[2,3-c]pyridin-2-yl)propanamide], for which the IC50 (at c-Myc/Max/Ebox DNA; in experiment [1]) was under 0.5 µM in each case.
Take `CN(C)CCC(=O)Nc1sc2c(c1-c1nc3cnccc3s1)CCNC2` [Compound 219, 3-(dimethylamino)-N-(3-(thiazolo[4,5-c]pyridin-2-yl)-4,5,6,7-tetrahydrothieno[2,3-c]pyridin-2-yl)propanamide]: the IC50 (against c-Myc/Max/Ebox DNA; in experiment [1]) was under 0.5 µM throughout.
On to `CC(C)NCCC(=O)Nc1sc2c(c1-c1nc3ncccc3s1)CCNC2` [Compound 220, 3-(isopropylamino)-N-(3-(thiazolo[4,5-b]pyridin-2-yl)-4,5,6,7-tetrahydrothieno[2,3-c]pyridin-2-yl)propanamide dihydrochloride], for which the IC50 (against c-Myc/Max/Ebox DNA; in experiment [1]) was under 0.5 µM each time.
With `O=C(CCNC1CNC1)Nc1sc2c(c1-c1nc3cnccc3s1)CCNC2` [Compound 223, 3-(Azetidin-3-ylamino)-N-(3-(thiazolo[4,5-c]pyridin-2-yl)-4,5,6,7-tetrahydrothieno[2,3-c]pyridin-2-yl)propanamide], the IC50 (at c-Myc/Max/Ebox DNA; in experiment [1]) was under 0.5 µM in each case.
For the compound `CNCCC(=O)Nc1sc2c(c1-c1nc3cnccc3s1)CCNC2` [Compound 224, 3-(Methylamino)-N-(3-(thiazolo[4,5-c]pyridin-2-yl)-4,5,6,7-tetrahydrothieno[2,3-c]pyridin-2-yl)propanamide], the IC50 at c-Myc/Max/Ebox DNA is under 0.5 µM; in experiment [1], 0.5 to 5 µM.
`Cc1cc2sc(-c3c(NC(=O)CCNC(C)C)sc4c3CCNC4)nc2c(C)n1` [Compound 225, N-(3-(4,6-Dimethylthiazolo[4,5-c]pyridin-2-yl)-4,5,6,7-tetrahydrothieno[2,3-c]pyridin-2-yl)-3-(isopropylamino)propanamide dihydrochloride]: the IC50 (against c-Myc/Max/Ebox DNA; in experiment [1]) was under 0.5 µM in each case.
Take `CC[C@H](C)NCCC(=O)Nc1sc2c(c1-c1nc3c(C(F)F)nccc3s1)CCNC2` [Compound 226]: the IC50 (against c-Myc/Max/Ebox DNA; in experiment [1]) was under 0.5 µM throughout.
In the case of `COCCNCCC(=O)Nc1sc2c(c1-c1nc3c(C)nc(C)cc3s1)CCNC2` [Compound 227, N-(3-(4,6-Dimethylthiazolo[4,5-c]pyridin-2-yl)-4,5,6,7-tetrahydrothieno[2,3-c]pyridin-2-yl)-3-((2-methoxyethyl)amino)propanamide dihydrochloride], the IC50 (at c-Myc/Max/Ebox DNA; in experiment [1]) was under 0.5 µM in each case.
On to `CC(=O)Nc1sc2c(c1-c1nc3c(C)nc(C)cc3s1)CCNC2` [Compound 228, N-(3-(4,6-dimethylthiazolo[4,5-c]pyridin-2-yl)-4,5,6,7-tetrahydrothieno[2,3-c]pyridin-2-yl)acetamide hydrochloride], for which the half-inhibitory concentration (IC50) (against c-Myc/Max/Ebox DNA; in experiment [1]) was under 0.5 µM each time.
With `CCN1Cc2sc(NC(C)=O)c(-c3nc4cnccc4s3)c2C[C@H]1C` [Compound 230, (R)—N-(6-ethyl-5-methyl-3-(thiazolo[4,5-c]pyridin-2-yl)-4,5,6,7-tetrahydrothieno[2,3-c]pyridin-2-yl)acetamide], the figures for the IC50 (at c-Myc/Max/Ebox DNA; in experiment [1]) were 0.5 to 5 µM and under 0.5 µM, respectively.
As for `CCN1Cc2sc(NC(C)=O)c(-c3nc4cnccc4s3)c2C[C@@H]1C` [Compound 231, (S)—N-(6-ethyl-5-methyl-3-(thiazolo[4,5-c]pyridin-2-yl)-4,5,6,7-tetrahydrothieno[2,3-c]pyridin-2-yl)acetamide], the results for the IC50 (at c-Myc/Max/Ebox DNA; in experiment [1]) were 0.5 to 5 µM and under 0.5 µM, respectively.
With `CCN1CCc2c(sc(NC(C)=O)c2-c2nc3cnccc3s2)[C@@H]1C` [Compound 232, (S)—N-(6-ethyl-7-methyl-3-(thiazolo[4,5-c]pyridin-2-yl)-4,5,6,7-tetrahydrothieno[2,3-c]pyridin-2-yl)acetamide], the IC50 (at c-Myc/Max/Ebox DNA; in experiment [1]) was under 0.5 µM throughout.
In the case of `CC[C@H](C)N(CCC(=O)Nc1sc2c(c1-c1nc3cnccc3s1)CCNC2)Cc1ccccc1` [Compound 233, (S)-3-(Benzyl(sec-butyl)amino)-N-(3-(thiazolo[4,5-c]pyridin-2-yl)-4,5,6,7-tetrahydrothieno[2,3-c]pyridin-2-yl)propanamide hydrochloride], the IC50 at c-Myc/Max/Ebox DNA fell in the range of 5 to 25 µM; in experiment [1], 0.5 to 5 µM.
As to `CC[C@H](C)NCCC(=O)Nc1sc2c(c1-c1nc3cnccc3s1)CCN[C@H]2C` [Compound 234, 3-(((S)-sec-butyl)amino)-N—((S)-7-methyl-3-(thiazolo[4,5-c]pyridin-2-yl)-4,5,6,7-tetrahydrothieno[2,3-c]pyridin-2-yl)propanamide], the IC50 (at c-Myc/Max/Ebox DNA; in experiment [1]) was under 0.5 µM each time.
As to `CC(=O)Nc1sc2c(c1-c1nc3cnccc3s1)C[C@@H](C)N[C@H]2C` [Compound 237], the IC50 (against c-Myc/Max/Ebox DNA; in experiment [1]) was 0.5 to 5 µM in each case.
Consider `CC[C@H](C)NCCC(=O)Nc1sc2c(c1-c1nc3cnccc3s1)CCN(CC)C2` [Compound 238, (S)-3-(sec-butylamino)-N-(6-ethyl-3-(thiazolo[4,5-c]pyridin-2-yl)-4,5,6,7-tetrahydrothieno[2,3-c]pyridin-2-yl)propanamide], for which the IC50 (against c-Myc/Max/Ebox DNA; in experiment [1]) was under 0.5 µM in each case.
With `CC[C@H](C)NCCC(=O)Nc1sc2c(c1-c1nc3cnccc3s1)CCN(C(C)C)C2` [Compound 239, (S)-3-(sec-butylamino)-N-(6-isopropyl-3-(thiazolo[4,5-c]pyridin-2-yl)-4,5,6,7-tetrahydrothieno[2,3-c]pyridin-2-yl)propanamide], the IC50 (against c-Myc/Max/Ebox DNA; in experiment [1]) was under 0.5 µM each time.
Consider `COCCNCCC(=O)Nc1sc2c(c1-c1nc3cnc(Cl)cc3s1)CCNC2` [Compound 243], for which the IC50 (against c-Myc/Max/Ebox DNA; in experiment [1]) was under 0.5 µM each time.
Take `COCCNCCC(=O)Nc1sc2c(c1-c1nc3cnc(C)cc3s1)CCNC2` [Compound 244]: the IC50 (against c-Myc/Max/Ebox DNA; in experiment [1]) was under 0.5 µM throughout.
Take `COCCNCCC(=O)Nc1sc2c(c1-c1nc3c(C(F)F)nc(C)cc3s1)CCNC2` [Compound 245]: the concentration for half-maximal inhibition (IC50) (on c-Myc/Max/Ebox DNA; in experiment [1]) was under 0.5 µM in each case.
With `C[C@@H]1NCCc2c1sc(NC(=O)CCN[C@@H]1C[C@H]3CNC[C@H]3C1)c2-c1nc2cnccc2s1` [Compound 246, N—((S)-7-methyl-3-(thiazolo[4,5-c]pyridin-2-yl)-4,5,6,7-tetrahydrothieno[2,3-c]pyridin-2-yl)-3-(((3aR,5s,6aS)-octahydrocyclopenta[c]pyrrol-5-yl)amino)propanamide], the IC50 against c-Myc/Max/Ebox DNA is 0.5 to 5 µM; in experiment [1] it was under 0.5 µM.
